Reference: US20080221074A1, “Drug Screen and Treatment Method” (priority 2006, published 2008)
Entries after “also recorded” stand apart in the source; their conditions may differ.

Assays:
[1] = test system: blood glucose in db/db mice; assay: glucose lowering in diabetic db/db mice; type: in vivo, db/db C57BL/Ks mice
Method: Glucose lowering and amelioration of insulin resistance. Glucose lowering effects and amelioration of insulin resistance was assessed in the diabetic db/db mouse model of human diabetes and insulin resistance. In these studies, db/db C57BL/Ks mice of approximately 8 to 10 weeks of age were divided into groups of 10 each and then treated with a vehicle control (no drug) or 17α-ethynylandrost-5-ene-3β,7β,17β-triol by oral gavage. The compound was administered twice a day at 20 mg/kg/day (10 mg/kg dose administered twice per day), 40 mg/kg/day (20 mg/kg dose administered twice per day) or 80 mg/kg/day (40 mg/kg dose administered twice per day) for up to 28 days. Blood glucose levels were monitored twice a week during the dosing period, using a minute amount of blood (nick tail bleeds) to measure the concentration of glucose by glucometer strips. At specific times during the dosing period (day 14 and day 28), an oral glucose tolerance test (OGTT) was also performed by administering a standard oral dose of 1 g/kg glucose (approximately 40 mg in a […]) and then the fluctuation of blood glucose levels was monitored quickly thereafter after at 15, 30, 60 and 120 minutes after the glucose dose. […] Blood glucose approached 380 mg/dL in the vehicle control group and was <230 mg/dL after at least 10 days of dosing in the drug treated group.
A treatment protocol similar to that described in example 15 was performed with db/db mice that were younger than the animals described in example 15. The animals (n=8 to 10 per group) were treated with 17α-ethynylandrost-5-ene-3β,7β,17β-triol or vehicle by oral gavage twice per day at 40 mg/kg/day (20 mg/kg dose given twice per day) and 80 mg/kg/day (40 mg/kg dose given twice per day). At the start of dosing, the animals were 6 weeks of age, before the onset of elevated glucose levels or hyperglycemia. Dosing with vehicle or drug was maintained for 32 days to determine the effect of the treatments on the onset and rate of progression of hyperglycemia in the animals. In the control group, the onset of hyperglycemia was observed after 25 days of dosing and it continued to worsen, i.e., blood glucose levels rose from normal to frank hyperglycemia, through the end of the 32 day dosing period.

osteoprotegerin = osteoprotegerin levels in dexamethasone treated mice; type: in vivo; details: vehicle, dexamethasone and compound at 4 mg/kg/day; p<0.05
Method: Osteoprotegerin levels in mice that were treated with vehicle and dexamethasone at 10 μg/day (positive control group) had 3.3 pMol/L osteoprotegerin, while animals treated with vehicle, dexamethasone and 17α-ethynyl-5-androstene-3β,7β,17β-triol at 4 mg/kg/day had 6.4 pMol/L osteoprotegerin (p<0.05).

In the case of C#C[C@]1(O)CC[C@H]2[C@@H]3[C@@H](O)C=C4C[C@@H](O)CC[C@]4(C)[C@H]3CC[C@@]21C [17α-ethynylandrost-5-ene-3β,7β,17β-triol], the “OGTT peak glycemic excursion” value ([1]; 80 mg/kg b.i.d. for 28 days, 30-min post-oral glucose) is reported as under 200 mg/dL, the onset of hyperglycemia ([1]; 6 week old db/db mice, 32 day dosing) is reported as “did not rise above normal levels; also recorded: completely blocked progression” and the “decrease in hyperglycemic blood glucose levels” value ([1]; 8 to 10 week old db/db mice, oral gavage twice a day) is reported as “approximately 40%”. The basal blood glucose ([1]; 8 week old male db/db mice, 40 mg/kg dose group, twice a day) was “markedly suppressed”, the blood glucose ([1]; after at least 10 days of dosing) was under 230 mg/dL and the “glucose intolerance in OGTT vs vehicle” value ([1]; treated db/db animals) was “significant amelioration of glucose intolerance”. It also gave an osteoprotegerin (osteoprotegerin) of 6.4 pmol/L.
